Laboratory results from patent US9067923B2, “Substituted quinoxalines” (Kyowa Hakko Kirin Co., Ltd., priority 2011, dated 2015).

Each compound was assayed on production of kynurenine in human gastric cancer cell line KATO-III (assay: Inhibitory activity on the production of kynurenine (IFN-γ-treated KATO-III cells)). Conditions: 10 μmol/L test compound, KATO-III cells treated with IFN-γ, 96 hours.
Format: cell-based
Method: This assay was performed by a modification of the method described in J. Biol. Chem., vol. 263, pp. 2041-2048 ([…]). For culture of the human gastric cancer cell line […], RPMI 1640 (GIBCO, 11875) supplemented with 10 vol % FBS (GIBCO, 10091-148, lot. 665285) was used. One μL of a test substance in a DMSO solution was diluted with 199 μL of the culture medium and placed in wells of a 384-well plate (10 μL/well). Next, IFN-γ (Sigma, I-3265) was added to a fresh culture medium to a concentration of 31.25 ng/mL, and KATO-III cells were suspended at 50,000 cells/mL in the culture medium. Forty μL of the suspension was added to each well (2,000 cells/well) and cultured under 5% CO2 at 37° C. for 96 hours. The final concentration of DMSO was limited to 0.1 vol % or less so that DMSO itself may not affect the kynurenine concentration measured in this assay. After the culture, 10 μL of a 30 w/v % aqueous trichloroacetic acid solution was added to each well, and incubation was performed at 65° C. for 30 minutes. The plate was centrifruged at 2,500×g for 5 minutes and 15 μL of the supernatant in each well was transferred into another 384-well plate. To the transferred supernatant, 15 μL of a 2 w/v % solution of p-dimethylaminobenzaldehyde in acetic acid was added, incubation was performed at 65° C. for 20 minutes and the absorbance was measured at 480 nm.
Sample: the absorbance value of the well to which DMSO solution containing a test substance was added and in which the cells were treated with IFN-γ.
Blank: the absorbance value of the well to which DMSO not containing a test substance was added and in which the cells were treated with IFN-γ.
Control: the absorbance value of the well to which DMSO not containing a test substance was added and in which the cells were not treated with IFN-γ.
The inhibition % of each test compound was calculated by formula A1.
In this assay, the expression of IDO in KATO-III cells is induced by IFN-γ treatment, and kynurenine in the culture medium is quantified. The kynurenine concentration in a culture medium is known to increase in proportion to the enzymatic activity of intracellular IDO (for example, J. Biol. Chem., vol. 263, pp. 2041-2048 (1988)). […] The production of kynurenine is known to be inhibited by IDO inhibitors (for example, J. Clin. Invest., vol. 117, No. 5, pp. 1147-1154 ([…])), and thus it is speculated that compounds (I) also have an inhibitory effect on IDO.

Compound	inhibition at 10 µM
CCCS(=O)(=O)Nc1nc2ccccc2nc1OC(C1CCN(c2cc(C(=O)N(C)C)ccn2)CC1)C(F)(F)F (centres unmarked) [Compound 1, N,N-dimethyl-2-(4-(2,2,2-trifluoro-1-(3-(propylsulfonamido)quinoxalin-2-yloxy)ethyl)piperidin-1-yl)isonicotinamide]	≥ 80%
CCCS(=O)(=O)Nc1nc2ccccc2nc1OC(C1CCN(c2ccccn2)CC1)C(F)(F)F (centres unmarked) [Compound 20, N-(3-(2,2,2-trifluoro-1-(1-(pyridin-2-yl)piperidin-4-yl)ethoxy)quinoxalin-2-yl)propane-1-sulfonamide]	≥ 80%
CCCS(=O)(=O)Nc1nc2ccccc2nc1OC(C1CCN(c2ncccc2C(=O)N(C)C)CC1)C(F)(F)F (centres unmarked) [Compound 2, N,N-dimethyl-2-(4-(2,2,2-trifluoro-1-(3-(propylsulfonamido)quinoxalin-2-yloxy)ethyl)piperidin-1-yl)nicotinamide]	≥ 80%
CCCS(=O)(=O)Nc1nc2ccccc2nc1OC(C1CCN(c2cnccn2)CC1)C(F)(F)F (centres unmarked) [Compound 13, N-(3-(2,2,2-trifluoro-1-(1-(pyrazin-2-yl)piperidin-4-yl)ethoxy)quinoxalin-2-yl)propane-1-sulfonamide]	≥ 80%
CCCS(=O)(=O)Nc1nc2ccccc2nc1OC(C1CCN(c2nnnn2C)CC1)C(F)(F)F (centres unmarked) [Compound 12, N-(3-(2,2,2-trifluoro-1-(1-(1-methyl-1H-tetrazol-5-yl)piperidin-4-yl)ethoxy)quinoxalin-2-yl)propane-1-sulfonamide]	≥ 80%
CCCS(=O)(=O)Nc1nc2ccccc2nc1OC(C1CCN(c2ccc(C#N)cn2)CC1)C(F)(F)F (centres unmarked) [Compound 15, N-(3-(1-(1-(5-cyanopyridin-2-yl)piperidin-4-yl)-2,2,2-trifluoroethoxy)quinoxalin-2-yl)propane-1-sulfonamide]	≥ 80%
CCCS(=O)(=O)Nc1nc2ccccc2nc1OC(C1CCN(c2nccs2)CC1)C(F)(F)F (centres unmarked) [Compound 18, N-(3-(2,2,2-trifluoro-1-(1-(thiazol-2-yl)piperidin-4-yl)ethoxy)quinoxalin-2-yl)propane-1-sulfonamide]	≥ 80%
CCCS(=O)(=O)Nc1nc2ccccc2nc1OC(C1CCN(c2ccnc(C#N)c2)CC1)C(F)(F)F (centres unmarked) [Compound 16, N-(3-(1-(1-(2-cyanopyridin-4-yl)piperidin-4-yl)-2,2,2-trifluoroethoxy)quinoxalin-2-yl)propane-1-sulfonamide]	≥ 80%
CCCS(=O)(=O)Nc1nc2ccccc2nc1OC(C1CCN(c2ccncc2C#N)CC1)C(F)(F)F (centres unmarked) [Compound 17, N-(3-(1-(1-(3-cyanopyridin-4-yl)piperidin-4-yl)-2,2,2-trifluoroethoxy)quinoxalin-2-yl)propane-1-sulfonamide]	≥ 80%
CCCS(=O)(=O)Nc1nc2ccccc2nc1OC(C1CCN(c2ncccc2C(N)=O)CC1)C(F)(F)F (centres unmarked) [Compound 10, 2-(4-(2,2,2-trifluoro-1-(3-(propylsulfonamido)quinoxalin-2-yloxy)ethyl)piperidin-1-yl)nicotinamide]	≥ 80%
CCCS(=O)(=O)Nc1nc2ccccc2nc1OC(c1ccc(-c2noc(COC)n2)nc1)C(F)(F)F (centres unmarked) [Compound 26, N-(3-(2,2,2-trifluoro-1-(6-(5-(methoxymethyl)-1,2,4-oxadiazol-3-yl)pyridin-3-yl)ethoxy)quinoxalin-2-yl)propane-1-sulfonamide]	≥ 80%
CCCS(=O)(=O)Nc1nc2ccccc2nc1O[C@H](c1cnc(C(C)=O)s1)C(F)(F)F [Compound 32, (S)-N-(3-(1-(2-acetylthiazol-5-yl)-2,2,2-trifluoroethoxy)quinoxalin-2-yl)propane-1-sulfonamide]	≥ 80%
CCCS(=O)(=O)Nc1nc2ccccc2nc1OC(C1CCN(c2cncnc2)CC1)C(F)(F)F (centres unmarked) [Compound 14, N-(3-(2,2,2-trifluoro-1-(1-(pyrimidin-5-yl)piperidin-4-yl)ethoxy)quinoxalin-2-yl)propane-1-sulfonamide]	≥ 80%
CCCS(=O)(=O)Nc1nc2ccccc2nc1OC(C1CCN(c2cccnc2)CC1)C(F)(F)F (centres unmarked) [Compound 21, N-(3-(2,2,2-trifluoro-1-(1-(pyridin-3-yl)piperidin-4-yl)ethoxy)quinoxalin-2-yl)propane-1-sulfonamide]	≥ 80%
COCCS(=O)(=O)Nc1nc2ccccc2nc1OC(c1ccc(-c2noc(C3CC3)n2)nc1)C(F)(F)F (centres unmarked) [Compound 23, N-(3-(1-(6-(5-cyclopropyl-1,2,4-oxadiazol-3-yl)pyridin-3-yl)-2,2,2-trifluoroethoxy)quinoxalin-2-yl)-2-methoxyethanesulfonamide]	≥ 80%
CCCS(=O)(=O)Nc1nc2ccccc2nc1OC(C1CCN(c2ncccc2C#N)CC1)C(F)(F)F (centres unmarked) [Compound 9, N-(3-(1-(1-(3-cyanopyridin-2-yl)piperidin-4-yl)-2,2,2-trifluoroethoxy)quinoxalin-2-yl)propane-1-sulfonamide]	≥ 80%
CCCS(=O)(=O)Nc1nc2ccccc2nc1OC(C1CCN(c2ccc(C(N)=O)cn2)CC1)C(F)(F)F (centres unmarked) [Compound 19, 6-(4-(2,2,2-trifluoro-1-(3-(propylsulfonamido)quinoxalin-2-yloxy)ethyl)piperidin-1-yl)nicotinamide]	≥ 80%
CCCS(=O)(=O)Nc1nc2ccccc2nc1OC(C1CCN(c2cncc(C#N)c2)CC1)C(F)(F)F (centres unmarked) [Compound 7, N-(3-(1-(1-(5-cyanopyridin-3-yl)piperidin-4-yl)-2,2,2-trifluoroethoxy)quinoxalin-2-yl)propane-1-sulfonamide]	≥ 80%
CCCS(=O)(=O)Nc1nc2ccccc2nc1OC(C1CCN(c2cc(C#N)ccn2)CC1)C(F)(F)F (centres unmarked) [Compound 6, N-(3-(1-(1-(4-cyanopyridin-2-yl)piperidin-4-yl)-2,2,2-trifluoroethoxy)quinoxalin-2-yl)propane-1-sulfonamide]	≥ 80%
CCCS(=O)(=O)Nc1nc2ccccc2nc1OC(C1CCN(c2ccc(C(=O)N(C)C)cn2)CC1)C(F)(F)F (centres unmarked) [Compound 8, N,N-dimethyl-6-(4-(2,2,2-trifluoro-1-(3-(propylsulfonamido)quinoxalin-2-yloxy)ethyl)piperidin-1-yl)nicotinamide]	≥ 80%
CCCS(=O)(=O)Nc1nc2ccccc2nc1OC(C1CCN(c2ccc(C(N)=O)nc2)CC1)C(F)(F)F (centres unmarked) [Compound 5, 5-(4-(2,2,2-trifluoro-1-(3-(propylsulfonamido)quinoxalin-2-yloxy)ethyl)piperidin-1-yl)picolinamide]	≥ 80%
CCCS(=O)(=O)Nc1nc2ccccc2nc1O[C@H](C1CCN(c2ccc(C(N)=O)nc2)CC1)C(F)(F)F [Compound 34, (R)-5-(4-(2,2,2-trifluoro-1-(3-(propylsulfonamido)quinoxalin-2-yloxy)ethyl)piperidin-1-yl)picolinamide]	≥ 80%
CCCS(=O)(=O)Nc1nc2ccccc2nc1OC(C1CCN(c2cccc(C(=O)N(C)C)n2)CC1)C(F)(F)F (centres unmarked) [Compound 3, N,N-dimethyl-6-(4-(2,2,2-trifluoro-1-(3-(propylsulfonamido)quinoxalin-2-yloxy)ethyl)piperidin-1-yl)picolinamide]	≥ 80%
